Structures are written as SMILES. Where only a bound is given, the exact number is not on record here.

In assay [1] the test system is N87 (human gastric carcinoma derived from metastatic liver site). Nature of the assay: Cytotoxicity assay for payloads (MTS), N87 cells. The conditions noted are these: Homo sapiens, 96 h; N87 cells, incubated with compounds for four days, MTS absorbance 490 nm; read-out: N87 IC50. The class given is cell-based. The method, then:
(§1) Cancer cell lines were obtained from ATCC (Manassas, Va.). N87 (human gastric carcinoma derived from metastatic liver site). HL60 (leukemia), A375 (melanoma) and HUVEC (human umbilical vein endothelial cells). were grown in RPMI 1640 media. All media were supplemented with 10% fetal bovine serum, 1% sodium pyruvate, and 1% L-glutamine (Invitrogen, Grand Island, N.Y.). Human umbilical vein endothelial cells (HUVEC) were obtained from Lonza (Allendale, N.J.) and maintained in EGM2 media supplemented with EGM-2 SingleQuots (Lonza # CC-4176). All cells were maintained in a humidified incubator (37° C., 5% CO2).
(§2) Cells in 100 μl medium were cultured in a 96-well plate. Cancer cell lines treated with the indicated compounds by adding 50 μl of 3× stocks in duplicate at 10 concentrations. Cells were incubated with compounds for four days, then 30 μl of CellTiter® 96 AQueous One MTS Solution (Promega Cat # G3582) was added to the cells, incubated 1.5 hr at 37° C., then absorbance measured at 490 nm on a Victor plate reader (Perkin Elmer, Waltham, Mass.). Relative cell viability was determined as a percentage of untreated control wells. IC50 values were calculated using four parameter logistic model #203 with XLfit v4.2 (IDBS, Guildford, Surry, UK).

In another assay the test system is HL60 (leukemia). Nature of the assay: Cytotoxicity assay for payloads (MTS), HL-60 cells. The class given is cell-based. The conditions noted are these: Homo sapiens, 96 h, incubated with compounds for four days, MTS absorbance 490 nm. The method, then:
as §1, §2

With `CC(=O)Oc1cc2c(c3ccccc13)[C@H](CCl)CN2C(=O)c1ccc(C(=O)N2C[C@@H](CCl)c3c2cc(N)c2ccccc32)s1` [Compound 115, Acetic acid (S)-3-[5-((S)-5-amino-1-chloromethyl-1,2-dihydro-benzo[e]indole-3-carbonyl)-thiophene-2-carbonyl]-1-chloromethyl-2,3-dihydro-1H-benzo[e]indol-5-yl ester], the concentration for half-maximal inhibition (IC50) in assay [1] is 1.44 nM; with HL60 (leukemia), 0.015 nM.
Take `Cc1c[nH]c2c(O)cc3c(c12)[C@H](CCl)CN3C(=O)C12CC(C(=O)N3C[C@@H](CCl)c4c3cc(N)c3ccccc43)(C1)C2` [Compound 180, [(1S)-5-amino-1-(chloromethyl)-1,2-dihydro-3H-benzo[e]indol-3-yl](3-{[(1S)-1-(chloromethyl)-5-hydroxy-8-methyl-1,6-dihydropyrrolo[3,2-e]indol-3(2H)-yl]carbonyl}bicyclo[1.1.1]pent-1-yl)methanone]: the IC50 amounted to 0.425 nM in assay [1] and 0.048 nM in the assay on HL60 (leukemia).
Taken in the same sequence, the figures for `Nc1cc2c(c3ccccc13)[C@H](CCl)CN2C(=O)C12CC(C(=O)N3C[C@@H](CCl)c4c3cc(OP(=O)(O)O)c3ccccc43)(C1)C2` [Compound 161, (1S)-3-[(3-{[(1S)-5-amino-1-(chloromethyl)-1,2-dihydro-3H-benzo[e]indol-3-yl]carbonyl}bicyclo[1.1.1]pent-1-yl)carbonyl]-1-(chloromethyl)-2,3-dihydro-1H-benzo[e]indol-5-yl dihydrogen phosphate] were not below 10 nM and 27.2 nM.
For `CC(=O)Nc1ccc2c(OC(C)=O)cc3c(c2c1)[C@H](CCl)CN3C(=O)C12CC(C(=O)N3C[C@@H](CCl)c4c3cc(OC(C)=O)c3ccccc43)(C1)C2` [Compound 109, (1S)-3-[(3-{[(1S)-8-(acetylamino)-5-(acetyloxy)-1-(chloromethyl)-1,2-dihydro-3H-benzo[e]indol-3-yl]carbonyl}bicyclo[1.1.1]pent-1-yl)carbonyl]-1-(chloromethyl)-2,3-dihydro-1H-benzo[e]indol-5-yl acetate], the results for the IC50 (in assay [1]; with HL60 (leukemia)) were 2.3 nM and 0.095 nM, respectively.
As to `Cc1c[nH]c2c1[C@@]13C[C@@H]1CN(C(=O)C14CC(C(=O)N5C[C@H]6C[C@@]67C5=CC(=O)c5[nH]cc(C)c57)(C1)C4)C3=CC2=O` [Compound 135, (3bR,4aS,3b′R,4a′S)-6,6′-(bicyclo[1.1.1]pentane-1,3-diyldicarbonyl)bis(3-methyl-4,4a,5,6-tetrahydrocyclopropa[c]pyrrolo[3,2-e]indol-8(1H)-one)], the figures for the IC50 (in assay [1]; in the assay on HL60 (leukemia)) were 0.019 nM and 0.005 nM, respectively.
Taken in the same sequence, the figures for `O=C([C@@H]1CCC[C@H](C(=O)N2C[C@@H](CCl)c3c2cc(O)c2ccccc32)C1)N1C[C@@H](CCl)c2c1cc(O)c1ccccc21` [Compound 16, (S)-((1R,3S)-cyclohexane-1,3-diyl)bis(((S)-1-(chloromethyl)-5-hydroxy-1H-benzo[e]indol-3(2H)-yl)methanone)] were 1.76 nM and 0.163 nM.
For `CC(=O)Oc1cc2c(c3c(C)c[nH]c13)[C@H](CCl)CN2C(=O)C12CCC(C(=O)N3C[C@@H](CCl)c4c3cc(OC(C)=O)c3[nH]cc(C)c43)(CC1)C2` [Compound 88, bicyclo[2.2.1]heptane-1,4-diylbis[carbonyl(1S)-1-(chloromethyl)-8-methyl-1,6-dihydropyrrolo[3,2-e]indole-3,5(2H)-diyl]diacetate], the IC50 in assay [1] is 0.502 nM; in the assay with HL60 (leukemia) it was 0.022 nM.
For `NC(CC(=O)N1C[C@@H](CCl)c2c1cc(O)c1ccccc21)CC(=O)N1C[C@@H](CCl)c2c1cc(O)c1ccccc21` [Compound 40, 3-Amino-1,5-bis-((S)-1-chloromethyl-5-hydroxy-1,2-dihydro-enzo[e]indol-3-yl)-pentane-1,5-dione], in that order: 1.88 nM and 0.177 nM.
Taken in the same sequence, the figures for `N[C@@H](CCC(=O)N1C[C@H]2C[C@@]23C1=CC(=O)c1ccccc13)C(=O)N1C[C@H]2C[C@@]23C1=CC(=O)c1ccccc13` [Compound 167, (2S)-2-amino-1,5-bis[(1aS,9bR)-5-oxo-1a,2-dihydro-1H-benzo[e]cyclopropa[c]indol-3(5H)-yl]pentane-1,5-dione] were not below 10 nM and 1.45 nM.
For `Cc1c[nH]c2c(O)cc3c(c12)[C@H](CCl)CN3C(=O)CNCC(=O)N1C[C@@H](CCl)c2c1cc(O)c1[nH]cc(C)c21` [Compound 165, 2,2′-iminobis{1-[(1S)-1-(chloromethyl)-5-hydroxy-8-methyl-1,6-dihydropyrrolo[3,2-e]indol-3(2H)-yl]ethanone}], the IC50 in assay [1] turned out to be 8.26 nM; with HL60 (leukemia) it was 0.107 nM.
For `O=C(c1cccc(C(=O)N2C[C@@H](CCl)c3c2cc(O)c2ccccc32)c1)N1C[C@@H](CCl)c2c1cc(O)c1ccccc21` [Compound 20, (S)-1,3-phenylenebis(((S)-1-(chloromethyl)-5-hydroxy-1H-benzo[e]indol-3(2H)-yl)methanone)], in that order: 297 nM and 1.62 nM.
With `CC(=O)Oc1cc2c(c3ccccc13)[C@H](CCl)CN2C(=O)c1sc(C(=O)N2C[C@@H](CCl)c3c2cc(OC(C)=O)c2ccccc32)c2c1OCCCO2` [Compound 142, 3,4-dihydro-2H-thieno[3,4-b][1,4]dioxepine-6,8-diylbis[carbonyl(1S)-1-(chloromethyl)-1,2-dihydro-3H-benzo[e]indole-3,5-diyl] diacetate], the IC50 in assay [1] was not below 100 nM; with HL60 (leukemia) it was not below 10 nM.
On to `NC(CC(=O)N1C[C@H]2C[C@@]23C1=CC(=O)c1ccccc13)CC(=O)N1C[C@H]2C[C@@]23C1=CC(=O)c1ccccc13` [Compound 166, 3-amino-1,5-bis[(1aS,9bR)-5-oxo-1a,2-dihydro-1H-benzo[e]cyclopropa[c]indol-3(5H)-yl]pentane-1,5-dione], for which the figures for the IC50 (in assay [1]; in the assay on HL60 (leukemia)) were 5.69 nM and 0.659 nM, respectively.
For `O=C(c1ccc(C(=O)N2C[C@@H](CCl)c3c2cc(O)c2ccccc32)o1)N1C[C@@H](CCl)c2c1cc(O)c1ccccc21` [Compound 13, (S)-furan-2,5-diylbis(((S)-1-(chloromethyl)-5-hydroxy-1H-benzo[e]indol-3(2H)-yl)methanone)], in that order: 0.138 nM and 0.014 nM.
For `COc1c(C(=O)N2C[C@@H](CCl)c3c2cc(OC(C)=O)c2ccccc32)sc(C(=O)N2C[C@@H](CCl)c3c2cc(OC(C)=O)c2ccccc32)c1OC` [Compound 143, (3,4-dimethoxythiene-2,5-diyl)bis[carbonyl(1S)-1-(chloromethyl)-1,2-dihydro-3H-benzo[e]indole-3,5-diyl] diacetate], in that order: not below 100 nM and not below 10 nM.
Taken in the same sequence, the figures for `CC(=O)Nc1ccc2c(OC(C)=O)cc3c(c2c1)[C@@H](CCl)CN3C(=O)C12CC(C(=O)N3C[C@@H](CCl)c4c3cc(OC(C)=O)c3ccccc43)(C1)C2` [Compound 108, (1R)-8-(acetylamino)-3-[(3-{[(1S)-5-(acetyloxy)-1-(chloromethyl)-1,2-dihydro-3H-benzo[e]indol-3-yl]carbonyl}bicyclo[1.1.1]pent-1-yl)carbonyl]-1-(chloromethyl)-1,2-dihydro-3H-benzo[e]indol-5-yl acetate] were 3.98 nM and 0.431 nM.
Turning to `O=C1C=C2N(C(=O)c3ccc(C(=O)N4C[C@H]5C[C@@]56C4=CC(=O)c4ccccc46)s3)C[C@H]3C[C@@]23c2ccccc21` [Compound 136, (1aS,9bR,1a′S,9b′R)-3,3′-(thiene-2,5-diyldicarbonyl)bis(1,1a,2,3-tetrahydro-5H-benzo[e]cyclopropa[c]indol-5-one)], the concentration for half-maximal inhibition (IC50) in assay [1] stood at 0.003 nM; in the assay with HL60 (leukemia), 0.005 nM.
Taken in the same sequence, the figures for `CC(=O)Oc1cc2c(c3ccccc13)[C@H](CCl)CN2C(=O)c1cc2cc(NC(=O)Nc3ccc4[nH]c(C(=O)N5C[C@@H](CCl)c6c5cc(OC(C)=O)c5ccccc65)cc4c3)ccc2[nH]1` [Compound 149, (1S)-3-[(5-{[(2-{[(1S)-5-(acetyloxy)-1-(chloromethyl)-1,2-dihydro-3H-benzo[e]indol-3-yl]carbonyl}-1H-indol-5-yl)carbamoyl]amino}-1H-indol-2-yl)carbonyl]-1-(chloromethyl)-1,2-dihydro-3H-benzo[e]indol-5-yl acetate] were 0.132 nM and 0.007 nM.
Taken in the same sequence, the figures for `O=C([C@@H]1CNC[C@H](C(=O)N2C[C@@H](CCl)c3c2cc(O)c2ccccc32)C1)N1C[C@@H](CCl)c2c1cc(O)c1ccccc21` [Compound 174, (3R,5S)-piperidine-3,5-diylbis{[(1S)-1-(chloromethyl)-5-hydroxy-1,2-dihydro-3H-benzo[e]indol-3-yl]methanone}] were 87.9 nM and 1.97 nM.
As for `CC(=O)Oc1cc2c(c3ccccc13)[C@H](CCl)CN2C(=O)Cc1cccc(CC(=O)N2C[C@@H](CCl)c3c2cc(OC(C)=O)c2ccccc32)c1` [Compound 177, benzene-1,3-diylbis[(1-oxoethane-2,1-diyl)(1S)-1-(chloromethyl)-1,2-dihydro-3H-benzo[e]indole-3,5-diyl] diacetate], the 50% inhibitory concentration (IC50) in assay [1] came to 2.12 nM; in the assay with HL60 (leukemia), 0.196 nM.

One may read the IC50 as the concentration that gives 50% inhibition.
